Data from US9630952B2, “Crystalline forms of afatinib di-maleate” (IVAX INTERNATIONAL GMBH, priority 2014, dated 2017).
Each block holds one compound with its values, some of them ahead of it.

Legend:
Format in all cases: physicochemical
[1] = wettability; conditions: compared to form A
From the text: As discussed above, crystalline form N of Afatinib di-maleate has some advantages. […] Wetting is the ability of a liquid (e.g. water) to maintain contact with a solid surface (e.g., API). It is a precursor to dissolution and so the wettability of a drug particle has a significant influence on the dissolution rates and the release characteristics in an oral pharmaceutical delivery. Wettability may also influence the interactions with other particles during formulation and manufacture. A polymorph with enhanced wettability ensures proper solubility measurement of the API per se and in formulation during dissolution experiments, i.e., better distribution of water and properly wetted sample.

[2] = polymorphic stability under mechanical stress; conditions: exposed to mechanical stress (e.g. grinding, tabletting pressure); compared to Form A
From the text: As discussed above, crystalline form M of Afatinib di-maleate has advantages. […] As formulation processes often involve mechanical stress exerting technologies e.g. during grinding or under strong pressure in a tabletting machine, the polymorphic stability of API material is a desirable property.

[3] = competitive slurry experiment comparing thermodynamic stabilities of forms A and Alpha
From the text: As discussed above, crystalline form Alpha of Afatinib di-maleate has some advantages. […] Pharmaceutical molecules may display solid to solid phase transformations, transformations between polymorphs or between unsolvated and solvated form, which may be detected by competitive slurry experiments.

wettability [1]: better wettability over form A
SMILES: CN(C)C/C=C/C(=O)Nc1cc2c(Nc3ccc(F)c(Cl)c3)ncnc2cc1O[C@H]1CCOC1 [Form N, Afatinib di-maleate]

SMILES: CN(C)C/C=C/C(=O)Nc1cc2c(Nc3ccc(F)c(Cl)c3)ncnc2cc1O[C@H]1CCOC1 [Form M, Afatinib di-maleate]
polymorphic stability [2]: enhanced polymorphic stability compared to Form A

solid form resulting from competitive slurry of forms A and Alpha ([3]; in ethanol at room temperature, after about 67 hours): pure form Alpha
SMILES: CN(C)C/C=C/C(=O)Nc1cc2c(Nc3ccc(F)c(Cl)c3)ncnc2cc1O[C@H]1CCOC1 [Form Alpha, Afatinib di-maleate]
thermodynamic stability ([3]; concluded from competitive slurry in ethanol at room temperature, compared to form A): enhanced thermodynamic stability of form Alpha over form A
